In publication PMC9599717, “The Multicellular Effects of VDAC1 N-Terminal-Derived Peptide” (Biomolecules, 2022):

Columns and labels:
Format in all cases: cell-based, human
U-87MG cells [1] = assay: Cell morphology / cell size by light microscopy; conditions: 16 h treatment
Description: Cells were seeded in a 6-well plates, treated with D-Δ(1-18)N-Ter-Antp peptide for 24 h, and monitored with the Holomonitor live cell imaging system (Holographic Imaging, Lund, Sweden) for 24 h at 37 °C and 5% CO2 or with a microscope (LX2-KSP; Olympus, Shinjuku, Tokyo, Japan), with images captured by a CCD camera.
Figure 2 D-Δ(1-18)N-Ter-Antp-induced changes in cell morphology and cell membrane permeability. (A,B) U-87MG cells were treated with the indicated concentrations of D-Δ(1-18)N-Ter-Antp peptide for 16 h, and cell morphology was monitored by light microscope (A). Quantification of cell size (B). (C,D) U-87MG cells were untreated or treated with 10 μM of D-Δ(1-18)N-Ter-Antp peptide or N-TerΔ(21-26)-Antp for 24 h, and cell morphology was monitored by light microscope (C). Quantification of cell size (D). (E,F) Cells were stained with anti-vinculin antibodies, followed by secondary anti-mouse-cy3 antibodies. Scale bars are 20 μm. White arrows point to focal adhesion (E). Quantification of vinculin staining intensity (F). (G) D-Δ(1-18)N-Ter-Antp-induced cell membrane permeability changes in HeLa cells. Cells were treated with D-Δ(1-18)N-Ter-Antp peptide (10 µM) for 6 h and subjected to FM4-64 dye staining. Yellow arrows point to apoptotic cells with apoptotic bodies. (H) Quantification of fluorescence intensity of FM4-64. * p < 0.05, *** p < 0.001, **** p < 0.0001 (n = 3). […]

vinculin in U-87MG cells = assay: Vinculin immunofluorescence staining intensity
Description: Cells were seeded on sterile glass coverslips in 12-well plates and cultured until reaching about 80% confluence. Cells were treated with D-Δ(1-18)N-Ter-Antp peptide in serum-free DMEM for 24 h. Then cells were washed with PBS, fixed in 4% paraformaldehyde for 20 min, washed three times with PBS, permeabilized with 0.3% Triton X-100 in PBS, and blocked, in blocking buffer (10% Normal goat serum, 1% fatty acid-free bovine serum albumin [BSA], 0.1% TritonX100 diluted in PBS) for 2 h. Cells were incubated overnight at 4 ℃ with the appropriate primary antibodies (Table S1), followed by three washes with PBS. […]
Quantitation of protein levels, as reflected in the staining intensity, was analyzed in the whole area of the sections using Image J software.
Figure 2 D-Δ(1-18)N-Ter-Antp-induced changes in cell morphology and cell membrane permeability. (A,B) U-87MG cells were treated with the indicated concentrations of D-Δ(1-18)N-Ter-Antp peptide for 16 h, and cell morphology was monitored by light microscope (A). Quantification of cell size (B). (C,D) U-87MG cells were untreated or treated with 10 μM of D-Δ(1-18)N-Ter-Antp peptide or N-TerΔ(21-26)-Antp for 24 h, and cell morphology was monitored by light microscope (C). Quantification of cell size (D). […] Quantification of vinculin staining intensity (F). […]

U-87MG cells [2] = assay: Acridine orange (AO) staining of acidic vesicles; conditions: 6 h, serum-free DMEM
Description: Figure 7 D-Δ(1-18)-N-Ter-Antp peptide induced vesicle/particle formation. U-87MG cells were treated for 6 h with the indicated concentrations of D-Δ(1-18)N-Ter-Antp peptide in serum-free DMEM. (A) Cells were visualized for vesicle formation under a light microscope. Red circles indicate vesicles/particles. The images were captured at 40× and two folds enlargement is shown. (B,C) Cells were stained with acridine orange (AO). Arrows indicate red/orange stained endosomal/lysosomal vesicles (B). Scale bars were 20 μm. Vesicles/particles are indicated by violet arrows. Quantification of AO staining intensity (C). (D) Cells were stained with anti-vinculin antibodies, followed by secondary anti-mouse-cy3 antibodies. […] (F) U-87MG cells were treated with various concentrations of D-Δ(1-18)N-Ter-Antp peptide for the indicated time and subjected to Oil Red O staining and quantification as described in the Supplementary Data. […]
color was read in a spectrophotometer at 680 nm. […]
U-87MG cells were treated with D-Δ(1-18)N-Ter-Antp peptide in serum-free DMEM media for 6 h at 37℃, incubated with acridine orange (1 μg/ml) for 15 min, visualized by fluorescence microscopy (Olympus LX2 - KSP, Tokyo, Japan), and images were captured with a CCD camera. About 200 cells were counted for each […]

Substance: 19-FTKGYGFGL-26- RQIKIWFQNRRMKWKK [D-Δ(1-18)N-Ter-Antp]
- Enlarged cell area relative to untreated cells (U-87MG cells [1]): up to 3 fold
- Increase of vinculin expression compared to untreated cells (vinculin in U-87MG cells): 4 fold
- Increase in orange color (AO accumulation in acidic vesicles) (U-87MG cells [2]): more than 3 fold
